Where only a bound is given, the exact number is not on record here.

Consider 12 compounds from PMC6327040, “A novel scaffold for EGFR inhibition: Introducing N-(3-(3-phenylureido)quinoxalin-6-yl) acrylamide derivatives” (Scientific Reports, 2019).

One series deals with EGFRwt (Homo sapiens, UniProt P00533). Description: HTRF KinEASE-TK biochemical assay (TR-FRET), EGFRwt. Conditions: for inhibitory activity on EGFRwt (in words): enzymatic in vitro determination. Background: TR-FRET usually uses a lanthanide donor and a delayed reading to cut background.
Chain of EGFRwt (P00533 25-1210): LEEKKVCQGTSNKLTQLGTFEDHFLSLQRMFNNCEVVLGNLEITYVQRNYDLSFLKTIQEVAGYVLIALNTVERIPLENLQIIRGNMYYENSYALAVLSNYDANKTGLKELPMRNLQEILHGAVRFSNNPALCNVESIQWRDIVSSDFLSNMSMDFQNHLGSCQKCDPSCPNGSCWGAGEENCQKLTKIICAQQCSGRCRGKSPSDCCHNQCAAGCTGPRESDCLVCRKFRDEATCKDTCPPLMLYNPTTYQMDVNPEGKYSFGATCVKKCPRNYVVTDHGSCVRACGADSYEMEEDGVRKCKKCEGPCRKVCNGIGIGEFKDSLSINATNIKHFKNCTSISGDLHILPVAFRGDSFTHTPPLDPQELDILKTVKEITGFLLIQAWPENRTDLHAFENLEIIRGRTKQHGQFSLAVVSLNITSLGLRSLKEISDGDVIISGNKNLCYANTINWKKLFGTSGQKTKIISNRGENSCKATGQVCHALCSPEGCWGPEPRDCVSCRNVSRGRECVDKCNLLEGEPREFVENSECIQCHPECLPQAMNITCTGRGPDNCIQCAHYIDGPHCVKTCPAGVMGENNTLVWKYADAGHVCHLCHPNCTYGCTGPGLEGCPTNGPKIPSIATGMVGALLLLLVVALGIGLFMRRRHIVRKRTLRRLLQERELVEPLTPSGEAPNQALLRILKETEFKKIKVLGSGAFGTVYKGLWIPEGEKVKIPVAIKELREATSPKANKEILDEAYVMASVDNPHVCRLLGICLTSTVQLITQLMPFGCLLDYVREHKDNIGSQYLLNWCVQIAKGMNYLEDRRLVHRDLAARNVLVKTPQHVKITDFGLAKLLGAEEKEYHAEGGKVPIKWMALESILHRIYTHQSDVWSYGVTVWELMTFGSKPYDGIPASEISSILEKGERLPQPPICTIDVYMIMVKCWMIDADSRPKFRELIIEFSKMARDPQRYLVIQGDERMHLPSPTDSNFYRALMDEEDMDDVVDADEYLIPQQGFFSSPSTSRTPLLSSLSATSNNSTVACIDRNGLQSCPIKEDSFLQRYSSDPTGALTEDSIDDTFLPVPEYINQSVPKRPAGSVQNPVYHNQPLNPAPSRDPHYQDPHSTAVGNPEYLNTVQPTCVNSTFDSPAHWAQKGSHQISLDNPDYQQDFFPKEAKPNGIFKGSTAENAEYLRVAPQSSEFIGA
For a further series, the target named is EGFRL858R (Homo sapiens, UniProt P00533, L858R). Description: HTRF KinEASE-TK biochemical assay (TR-FRET), EGFR-L858R. The note with it: for inhibitory activity on EGFRL858R (in words): enzymatic in vitro determination.
Chain of EGFRL858R (P00533 25-1210 L858R): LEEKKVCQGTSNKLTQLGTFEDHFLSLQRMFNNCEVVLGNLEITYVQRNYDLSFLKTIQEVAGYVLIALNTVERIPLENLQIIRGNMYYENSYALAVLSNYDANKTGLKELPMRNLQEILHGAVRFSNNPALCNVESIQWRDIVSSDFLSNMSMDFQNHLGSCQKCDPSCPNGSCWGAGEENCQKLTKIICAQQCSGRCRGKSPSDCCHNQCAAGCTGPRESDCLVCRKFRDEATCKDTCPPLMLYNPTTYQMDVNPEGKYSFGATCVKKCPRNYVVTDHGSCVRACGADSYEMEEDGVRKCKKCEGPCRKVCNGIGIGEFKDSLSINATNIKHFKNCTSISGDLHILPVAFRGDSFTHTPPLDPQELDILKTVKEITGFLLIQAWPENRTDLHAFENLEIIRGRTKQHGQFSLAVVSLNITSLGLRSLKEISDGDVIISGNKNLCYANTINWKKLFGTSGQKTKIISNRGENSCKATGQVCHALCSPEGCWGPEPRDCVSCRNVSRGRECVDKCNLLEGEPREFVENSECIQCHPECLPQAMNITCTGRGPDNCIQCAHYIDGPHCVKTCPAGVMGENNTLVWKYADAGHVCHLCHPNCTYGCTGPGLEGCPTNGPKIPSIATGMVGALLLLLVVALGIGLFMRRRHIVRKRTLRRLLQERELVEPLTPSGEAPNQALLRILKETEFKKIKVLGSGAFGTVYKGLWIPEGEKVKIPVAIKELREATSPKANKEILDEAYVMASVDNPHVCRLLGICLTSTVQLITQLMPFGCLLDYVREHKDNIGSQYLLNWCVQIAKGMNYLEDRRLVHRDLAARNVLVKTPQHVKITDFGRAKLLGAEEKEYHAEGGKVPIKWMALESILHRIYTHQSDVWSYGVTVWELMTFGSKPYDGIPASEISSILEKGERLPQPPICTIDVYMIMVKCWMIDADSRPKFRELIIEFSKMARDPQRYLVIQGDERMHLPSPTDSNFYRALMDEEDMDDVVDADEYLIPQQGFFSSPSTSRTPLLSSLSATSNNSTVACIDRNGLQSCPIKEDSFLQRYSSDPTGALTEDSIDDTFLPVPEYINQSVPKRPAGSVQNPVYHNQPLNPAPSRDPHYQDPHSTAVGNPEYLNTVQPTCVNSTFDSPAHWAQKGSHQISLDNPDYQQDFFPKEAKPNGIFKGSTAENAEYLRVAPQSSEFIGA
A further series has as its target EGFRL858R/T790M (Homo sapiens, UniProt P00533, L858R/T790M). As to the kind of experiment: HTRF KinEASE-TK biochemical assay (TR-FRET), EGFR-L858R/T790M. The note with it: for inhibitory activity on EGFRL858R/T790M (in words): enzymatic in vitro determination.
The subject of series [1] is patient-derived tumor cell panel. As to the kind of experiment: Patient-derived tumor cell panel screening (Oncotest). The note with it: single screening concentration of 10 μM. Type of series: cell-based. The procedure: Based on this premise, the inhibitory activity of compounds 7a-m towards a patient-derived tumor cell panel[49] was evaluated, using a single screening concentration of 10 μM. […] In fact, it is worth mentioning that, although the data observed in a cellular assay have no direct correlation to EGFR enzymatic tests, this phenomenon is not unusual and is related to the nature of the assays itself. In enzymatic assays there is no influence of membrane permeability issues, while in cell viability assays compounds must penetrate the cell membrane and resist the cellular environment for long enough for the ligand-receptor interaction to occur and to trigger the biological activity.

Chain of EGFRL858R/T790M (P00533 25-1210 T790M/L858R): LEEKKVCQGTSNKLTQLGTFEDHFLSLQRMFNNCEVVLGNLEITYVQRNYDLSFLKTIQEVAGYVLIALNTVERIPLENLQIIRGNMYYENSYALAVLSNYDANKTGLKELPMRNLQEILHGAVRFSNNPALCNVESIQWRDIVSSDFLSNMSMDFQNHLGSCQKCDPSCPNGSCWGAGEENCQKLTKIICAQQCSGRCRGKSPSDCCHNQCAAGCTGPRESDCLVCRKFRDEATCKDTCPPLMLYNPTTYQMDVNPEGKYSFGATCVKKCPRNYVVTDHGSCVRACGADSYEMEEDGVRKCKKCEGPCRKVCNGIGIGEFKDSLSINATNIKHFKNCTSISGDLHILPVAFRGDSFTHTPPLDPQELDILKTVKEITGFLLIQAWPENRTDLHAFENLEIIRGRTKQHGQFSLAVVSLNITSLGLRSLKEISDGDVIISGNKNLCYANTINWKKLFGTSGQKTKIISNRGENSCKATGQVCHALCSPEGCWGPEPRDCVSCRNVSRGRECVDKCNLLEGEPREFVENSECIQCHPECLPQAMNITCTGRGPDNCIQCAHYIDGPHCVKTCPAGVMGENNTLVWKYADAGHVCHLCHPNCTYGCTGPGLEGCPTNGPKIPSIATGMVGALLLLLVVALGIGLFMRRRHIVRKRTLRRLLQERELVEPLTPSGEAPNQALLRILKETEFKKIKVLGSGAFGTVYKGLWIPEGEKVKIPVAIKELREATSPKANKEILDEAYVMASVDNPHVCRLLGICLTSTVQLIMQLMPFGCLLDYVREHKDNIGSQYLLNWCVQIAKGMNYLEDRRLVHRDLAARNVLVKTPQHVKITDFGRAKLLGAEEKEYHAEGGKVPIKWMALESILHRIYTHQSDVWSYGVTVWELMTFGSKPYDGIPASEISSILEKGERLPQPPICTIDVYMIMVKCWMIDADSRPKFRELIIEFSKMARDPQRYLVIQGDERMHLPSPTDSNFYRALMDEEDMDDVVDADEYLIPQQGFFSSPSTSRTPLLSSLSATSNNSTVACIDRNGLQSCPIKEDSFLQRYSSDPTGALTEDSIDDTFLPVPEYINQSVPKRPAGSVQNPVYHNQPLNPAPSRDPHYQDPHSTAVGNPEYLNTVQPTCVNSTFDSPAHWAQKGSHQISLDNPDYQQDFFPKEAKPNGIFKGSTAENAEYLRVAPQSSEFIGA
Procedure for EGFRL858R/T790M: (§1) An artificial substrate peptide (TK-substrate from Cisbio) was phosphorylated by EGFR. After completion of the reaction (reaction times: 25 min for wild-type, 15 min for L858R, 20 min for T790M/L858R), the reaction was stopped by addition of a buffer containing EDTA as well as, an anti-phosphotyrosine antibody labeled with europium cryptate and streptavidin labeled with the fluorophore XL665. FRET between europium cryptate and XL665 was measured after an additional hour of incubation to quantify the phosphorylation of the substrate peptide. […] Kinase and inhibitor were preincubated for 30 min (EGFR-wt) and 1 h (EGFR-L858R and EGFR-L858R/T790M) before the reaction was started by addition of ATP and substrate peptide. An EnVision multimode plate reader (Perkin Elmer) was used to measure the fluorescence of the samples at 620 nm (Eu-labeled antibody) and 665 nm (XL665 labeled streptavidin) 50 μs after excitation at 320 nm. The quotient of both intensities for reactions made with eight different inhibitor concentrations was then analyzed using the Quattro Software Suite for IC50-determination. Each reaction was performed in duplicate, and at least three independent determinations of each IC50 were made.
Procedure for EGFRwt: as §1

As usually defined, the melting point is the temperature of the solid-liquid transition. A word on the IC50: it is the point on the concentration scale where inhibition reaches its midpoint. Lower therefore signals greater potency. As to `C=CC(=O)Nc1ccc2ncc(NC(=O)Nc3ccc(Cl)c(C(F)(F)F)c3)nc2c1` [Compound 7a, N-(3-(3-(4-chloro-3-(trifluoromethyl)phenyl)ureido)quinoxalin-6-yl) acrylamide], the melting point lay in the range of 272 to 274 °C. This compound also returned a concentration for half-maximal inhibition (IC50) against EGFRwt of more than 10 µM. The IC50 against EGFRL858R is more than 10 µM. Besides, the IC50 on EGFRL858R/T790M was more than 10 µM.
`C/C=C/C(=O)Nc1ccc2ncc(NC(=O)Nc3ccc(Cl)c(C(F)(F)F)c3)nc2c1` [Compound 7b, (E)-N-(3-(3-(4-chloro-3-(trifluoromethyl)phenyl)ureido)quinoxalin-6-yl)but-2-enamide]: the melting point is 277 to 280 °C. Besides, the concentration for half-maximal inhibition (IC50) against EGFRwt is more than 10 µM. The compound further yielded an IC50 on EGFRL858R of more than 10 µM. The compound further returned an IC50 against EGFRL858R/T790M of more than 10 µM.
As for `O=C(CCl)Nc1ccc2ncc(NC(=O)Nc3ccc(Cl)c(C(F)(F)F)c3)nc2c1` [Compound 7c, 2-chloro-N-(3-(3-(4-chloro-3-(trifluoromethyl)phenyl)ureido)quinoxalin-6-yl)acetamide], the melting point fell in the range of 253 to 255 °C. The same compound had an IC50 at EGFRwt of more than 10 µM. This compound gave a concentration for half-maximal inhibition (IC50) on EGFRL858R of 3.24 ± 1.26 µM. Further, at EGFRL858R/T790M, the midpoint of inhibition, the IC50, lay at 2.71 ± 0.412 µM.
The corresponding values for `N#CCC(=O)Nc1ccc2ncc(NC(=O)Nc3ccc(Cl)c(C(F)(F)F)c3)nc2c1` [Compound 7d, N-(3-(3-(4-chloro-3-(trifluoromethyl)phenyl)ureido)quinoxalin-6-yl)-2-cyanoacetamide] are 243 to 246 °C, more than 10 µM, more than 10 µM and 9.87 ± 0.265 µM.
Turning to `CN(C)C/C=C/C(=O)Nc1ccc2ncc(NC(=O)Nc3ccc(Cl)c(C(F)(F)F)c3)nc2c1` [Compound 7e, (E)-N-(3-(3-(4-chloro-3-(trifluoromethyl)phenyl)ureido)quinoxalin-6-yl)-4-(dimethylamino)but-2-enamide], the melting point lay within 217 to 220 °C. Besides, at EGFRwt, the IC50 was more than 10 µM. Also, the IC50 on EGFRL858R is more than 10 µM. Moreover, at EGFRL858R/T790M, the IC50 was found to be 6.14 ± 3.47 µM.
Regarding `C=CC(=O)Nc1ccc2ncc(NC(=O)Nc3cccc(C(F)(F)F)c3)nc2c1` [Compound 7f, N-(3-(3-(3-(trifluoromethyl)phenyl)ureido)quinoxalin-6-yl)acrylamide], the melting point lay within 268 to 271 °C. Moreover, at EGFRwt, 2.5 ± 0.735 µM corresponded to half-maximal inhibition (IC50) and the “inhibitory activity on EGFRwt (in words)” value was “weak activity”. Further, on EGFRL858R, the IC50 amounted to 2.16 ± 1.62 µM and the “inhibitory activity on EGFRL858R (in words)” value is given as “weak activity”. Further, on EGFRL858R/T790M, the IC50 was more than 10 µM and the “inhibitory activity on EGFRL858R/T790M (in words)” value is recorded as “no inhibitory activity”.
Take `O=C(CCl)Nc1ccc2ncc(NC(=O)Nc3cccc(C(F)(F)F)c3)nc2c1` [Compound 7g, 2-chloro-N-(3-(3-(3-(trifluoromethyl)phenyl)ureido)quinoxalin-6-yl)acetamide]: the melting point is 260 to 263 °C. At EGFRwt, half-maximal inhibition (IC50) required 0.179 ± 0.061 µM and the “inhibitory activity on EGFRwt (in words)” value was “weak activity”. In addition, on EGFRL858R, the IC50 came to 2.1 ± 0.505 µM and the “inhibitory activity on EGFRL858R (in words)” value was “weak activity”. Moreover, at EGFRL858R/T790M, the IC50 amounted to 9.83 ± 0.297 µM and the “inhibitory activity on EGFRL858R/T790M (in words)” value is “no inhibitory activity”.
Compound `C/C=C/C(=O)Nc1ccc2ncc(NC(=O)Nc3ccccc3)nc2c1` [Compound 7i, (E)-N-(3-(3-phenylureido)quinoxalin-6-yl)but-2-enamide] returned a melting point of 273 to 276 °C. At EGFRwt, this compound displayed a concentration for half-maximal inhibition (IC50) of more than 10 µM. This compound yielded an IC50 against EGFRL858R of 5.58 ± 4.16 µM. Moreover, on EGFRL858R/T790M, the IC50 was more than 10 µM.
`O=C(CCl)Nc1ccc2ncc(NC(=O)Nc3ccccc3)nc2c1` [Compound 7j, 2-chloro-N-(3-(3-phenylureido)quinoxalin-6-yl)acetamide] returned a melting point of 249 to 252 °C. This compound also registered a half-inhibitory concentration (IC50) on EGFRwt of 0.123 ± 0.134 µM. At EGFRL858R, the midpoint of inhibition, the IC50, lay at 0.27 ± 0.202 µM. This compound also registered an IC50 against EGFRL858R/T790M of 0.823 ± 0.613 µM.
The corresponding values for `N#CCC(=O)Nc1ccc2ncc(NC(=O)Nc3ccccc3)nc2c1` [Compound 7k, 2-cyano-N-(3-(3-phenylureido)quinoxalin-6-yl)acetamide] are 238 to 241 °C, 3.12 ± 0.787 µM, 0.445 ± 0.105 µM and 6.29 ± 2.79 µM.
Regarding `CN(C)C/C=C/C(=O)Nc1ccc2ncc(NC(=O)Nc3ccccc3)nc2c1` [Compound 7l, (E)-4-(dimethylamino)-N-(3-(3-phenylureido)quinoxalin-6-yl)but-2-enamide], in series [1], the “tumor cell lines' growth inhibition / cytotoxic activity (in words)” value was “did not inhibit the Oncotest® tumor cell lines’ growth in a significant manner”. The IC50 on EGFRwt turned out to be 0.101 ± 0.012 µM; at EGFRL858R, 0.032 ± 0.014 µM; at EGFRL858R/T790M, 0.132 ± 0.049 µM.
For `C=CC(=O)Nc1ccc2ncc(NC(=O)Nc3ccc(F)c(Cl)c3)nc2c1` [Compound 7m, N-(3-(3-(3-chloro-4-fluorophenyl)ureido)quinoxalin-6-yl) acrylamide], the melting point is 259 to 262 °C. In addition, the IC50 on EGFRwt was more than 10 µM. This compound returned an IC50 against EGFRL858R of more than 10 µM. On EGFRL858R/T790M, the IC50 was more than 10 µM.
